This note sets out measurements from patent US8486933B2, “Pyrimidine inhibitors of kinase activity” (AbbVie Inc., priority 2009, dated 2013).

pIC50: −log10 of the molar value. Some results are limits rather than exact numbers.

In the experiment the target is T1, human IGF-1R (Homo sapiens, UniProt P08069).
T1 construct: human IGF-1R, amino acids 954-1367 expressed by baculovirus in Sf21 cells; GST (C); purchased Cell Signaling Technology; host or cells: baculovirus in Sf21 cells
T1 sequence (P08069 954-1367): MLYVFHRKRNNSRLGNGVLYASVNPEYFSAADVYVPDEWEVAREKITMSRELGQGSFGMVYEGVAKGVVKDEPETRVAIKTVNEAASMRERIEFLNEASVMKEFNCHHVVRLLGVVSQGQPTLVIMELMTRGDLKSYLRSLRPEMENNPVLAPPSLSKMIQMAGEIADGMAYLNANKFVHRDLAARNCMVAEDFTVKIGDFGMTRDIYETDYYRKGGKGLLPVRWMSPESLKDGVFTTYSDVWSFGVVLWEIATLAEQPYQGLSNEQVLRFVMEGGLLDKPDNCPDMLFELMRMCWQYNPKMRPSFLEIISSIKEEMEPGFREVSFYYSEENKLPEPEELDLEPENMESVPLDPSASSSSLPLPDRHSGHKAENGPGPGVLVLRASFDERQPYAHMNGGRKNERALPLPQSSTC
In words: IGF-1R homogenous time-resolved fluorescence (HTRF) in vitro kinase assay. Format: biochemical. Particulars: recombinant GST-tagged human IGF-1R aa 954-1367; ATP 50 μM; 60 minutes at room temperature. How it is done: IGF-1R kinase activity was assayed by a homogenous time-resolved fluorescence (HTRF) in vitro kinase assay (Mathis, G., HTRF(R) Technology. J Biomol Screen, 1999. 4(6): p. 309-314). Specifically, 10 μL C-terminal GST-tagged, recombinant, human IGF-1R, amino acids 954-1367 expressed by baculovirus in Sf21 cells (Cell Singaling Technology) was mixed with 10 μL inhibitor (various concentrations, 2% final DMSO) and 10 μL of ATP (50 μM final concentration) in reaction buffer (50 mM HEPES, pH 7.5, 10 mM MgCl2, 2 mM MnCl2, 0.1% BSA and 1 mM DTT, 40 μL final volume). The reaction was initiated by addition of 10 μL of biotinylated peptide substrate (Biotin-Ahx-[…], 0.5 μM final concentration) in a black 384-well plate (Packard). […] The quenched reaction was allowed to stand at room temperature for 1 hour and then read in a time-resolved fluorescence detector (Envision, Perkin Elmer) at 615 nm and 665 nm simultaneously. The ratio between the signal of 615 nm and 665 nm was used in the calculation of the IC50.
Turning to `CNC(=O)c1cc2c(cnn2C)cc1Nc1nc(Nc2ccc(N3CCC(N(C)C)CC3)cc2OC)ncc1Br` [Example 35, 5-{[5-bromo-2-({4-[4-(dimethylamino)piperidin-1-yl]-2-methoxyphenyl}amino)pyrimidin-4-yl]amino}-N,1-dimethyl-1H-indazole-6-carboxamide], the pIC50 was 7.30 to 8.00. On to `COc1cc(N2CCN(C(C)C)CC2)ccc1Nc1ncc(Br)c(Nc2cc3cnn(C)c3cc2S(C)(=O)=O)n1` [Example 43, 5-bromo-N^2-[4-(4-isopropylpiperazin-1-yl)-2-methoxyphenyl]-N^4-[1-methyl-6-(methylsulfonyl)-1H-indazol-5-yl]pyrimidine-2,4-diamine], for which the pIC50 was 7.30 to 8.00. `CCN1CCN(c2ccc(Nc3ncc(Br)c(Nc4cccc5[nH]c(C)nc45)n3)cc2)CC1` [Example 6, 5-bromo-N^2-[4-(4-ethylpiperazin-1-yl)phenyl]-N^4-(2-methyl-1H-benzimidazol-4-yl)pyrimidine-2,4-diamine]: the pIC50 is below 6.30.

With `COc1cc(N2CCC(N(C)C)CC2)ccc1Nc1ncc(Br)c(Nc2cccc3[nH]c(C)nc23)n1` [Example 16, 5-bromo-N^2-{4-[4-(dimethylamino)piperidin-1-yl]-2-methoxyphenyl}-N^4-(2-methyl-1H-benzimidazol-4-yl)pyrimidine-2,4-diamine], the pIC50 is 6.30 to 7.00. Consider `CCN1CCN(c2ccc(Nc3ncc(Br)c(Nc4ccc5c(c4)ncn5Cc4ccccc4)n3)cc2)CC1` [Example 4, N^4-(1-benzyl-1H-benzimidazol-5-yl)-5-bromo-N^2-[4-(4-ethylpiperazin-1-yl)phenyl]pyrimidine-2,4-diamine], for which the pIC50 is 6.30 to 7.00. Regarding `COc1cc(N2CCC(N3CCN(C)CC3)CC2)ccc1Nc1ncc(Br)c(Nc2cc3cnn(C)c3cc2S(=O)(=O)C(C)C)n1` [Example 28, 5-bromo-N^4-[6-(isopropylsulfonyl)-1-methyl-1H-indazol-5-yl]-N^2-{2-methoxy-4-[4-(4-methylpiperazin-1-yl)piperidin-1-yl]phenyl}pyrimidine-2,4-diamine], the negative logarithm of the IC50 (pIC50) was above 8.00. Turning to `COc1cc(N2CCC(N(C)C)CC2)ccc1Nc1ncc(Cl)c(Nc2cccc3[nH]c(C)nc23)n1` [Example 17, 5-chloro-N^2-{4-[4-(dimethylamino)piperidin-1-yl]-2-methoxyphenyl}-N^4-(2-methyl-1H-benzimidazol-4-yl)pyrimidine-2,4-diamine], the pIC50 was below 6.30. For `CCN1CCN(c2ccc(Nc3ncc(Br)c(Nc4ccc5[nH]ncc5c4)n3)cc2)CC1` [Example 7, 5-bromo-N^2-[4-(4-ethylpiperazin-1-yl)phenyl]-N^4-1H-indazol-5-ylpyrimidine-2,4-diamine], the negative-log IC50 (pIC50) was 7.00 to 7.29. `COc1cc(N2CCC(N(C)C)CC2)ccc1Nc1ncc(Br)c(Nc2cc3cn[nH]c3cc2S(=O)(=O)C(C)C)n1` [Example 23, 5-bromo-N^2-{4-[4-(dimethylamino)piperidin-1-yl]-2-methoxyphenyl}-N^4-[6-(isopropylsulfonyl)-1H-indazol-5-yl]pyrimidine-2,4-diamine]: the negative-log IC50 (pIC50) was above 8.00.

`CNC(=O)c1cc2c(cnn2C)cc1Nc1nc(Nc2ccc(N3CCOCC3)cc2OC)ncc1Br` [Example 41, 5-({5-bromo-2-[(2-methoxy-4-morpholin-4-ylphenyl)amino]pyrimidin-4-yl}amino)-N,1-dimethyl-1H-indazole-6-carboxamide]: the negative logarithm of the IC50 (pIC50) is 7.30 to 8.00. Consider `CCN1CCN(c2ccc(Nc3ncc(Br)c(Nc4ccc5ncn(Cc6ccccc6)c5c4)n3)cc2)CC1` [Example 5, N^4-(1-benzyl-1H-benzimidazol-6-yl)-5-bromo-N^2-[4-(4-ethylpiperazin-1-yl)phenyl]pyrimidine-2,4-diamine], for which the negative logarithm of the IC50 (pIC50) is below 6.30. Regarding `COc1cc(N2CCC(N(C)C)CC2)ccc1Nc1ncc(Br)c(Nc2cc3cn[nH]c3cc2SC(C)C)n1` [Example 24, 5-bromo-N^2-{4-[4-(dimethylamino)piperidin-1-yl]-2-methoxyphenyl}-N^4-[6-(isopropylthio)-1H-indazol-5-yl]pyrimidine-2,4-diamine], the pIC50 is 7.30 to 8.00. As for `COc1cc(N2CCC(N(C)C)CC2)ccc1Nc1ncc(Br)c(Nc2cc3cnn(C)c3cc2S(=O)(=O)C(C)C)n1` [Example 27, 5-bromo-N^2-{4-[4-(dimethylamino)piperidin-1-yl]-2-methoxyphenyl}-N^4-[6-(isopropylsulfonyl)-1-methyl-1H-indazol-5-yl]pyrimidine-2,4-diamine], the negative-log IC50 (pIC50) was above 8.00. For `CCS(=O)(=O)c1cc2[nH]ncc2cc1Nc1nc(Nc2ccc(N3CCC(N(C)C)CC3)cc2OC)ncc1Br` [Example 30, 5-bromo-N^2-{4-[4-(dimethylamino)piperidin-1-yl]-2-methoxyphenyl}-N^4-[6-(ethylsulfonyl)-1H-indazol-5-yl]pyrimidine-2,4-diamine], the pIC50 is above 8.00. Then `CNC(=O)c1cc2c(cnn2C)cc1Nc1nc(Nc2ccc(N3CCN(C(C)C)CC3)cc2OC)ncc1Br` [Example 44, 5-[(5-bromo-2-{[4-(4-isopropylpiperazin-1-yl)-2-methoxyphenyl]amino}pyrimidin-4-yl)amino]-N,1-dimethyl-1H-indazole-6-carboxamide], with 7.30 to 8.00.

For `COc1cc(N2CCC(N3CCN(C)CC3)CC2)ccc1Nc1ncc(Br)c(Nc2ccc3ccc(-c4ccccc4)nc3c2)n1` [Example 48, 5-bromo-N^2-{2-methoxy-4-[4-(4-methylpiperazin-1-yl)piperidin-1-yl]phenyl}-N^4-(2-phenylquinolin-7-yl)pyrimidine-2,4-diamine], the pIC50 is below 6.30. For the molecule `COc1cc(N2CCC(N3CCN(C)CC3)CC2)ccc1Nc1ncc(Br)c(Oc2ccc3cccnc3c2)n1` [Example 51, 5-bromo-N-{2-methoxy-4-[4-(4-methylpiperazin-1-yl)piperidin-1-yl]phenyl}-4-(quinolin-7-yloxy)pyrimidin-2-amine], the negative logarithm of the IC50 (pIC50) is 7.30 to 8.00.

`COc1cc(N2CCC(N(C)C)CC2)ccc1Nc1ncc(Br)c(Nc2cc3cnn(C)c3cc2S(C)(=O)=O)n1` [Example 34, 5-bromo-N^2-{4-[4-(dimethylamino)piperidin-1-yl]-2-methoxyphenyl}-N^4-[1-methyl-6-(methylsulfonyl)-1H-indazol-5-yl]pyrimidine-2,4-diamine]: the pIC50 is 7.30 to 8.00. For `CCS(=O)(=O)c1cc2c(cnn2C)cc1Nc1nc(Nc2ccc(N3CCOCC3)cc2OC)ncc1Br` [Example 39, 5-bromo-N^4-[6-(ethylsulfonyl)-1-methyl-1H-indazol-5-yl]-N^2-(2-methoxy-4-morpholin-4-ylphenyl)pyrimidine-2,4-diamine], the pIC50 is 7.30 to 8.00. As for `COc1cc(N2CCC(N(C)C)CC2)ccc1Nc1ncc(Cl)c(Nc2cc3cn[nH]c3cc2S(=O)(=O)C(C)C)n1` [Example 26, 5-chloro-N^2-{4-[4-(dimethylamino)piperidin-1-yl]-2-methoxyphenyl}-N^4-[6-(isopropylsulfonyl)-1H-indazol-5-yl]pyrimidine-2,4-diamine], the pIC50 was 7.30 to 8.00.

Consider `CCN1CCN(c2ccc(Nc3ncc(Br)c(Nc4ccc5[nH]c(C(F)(F)F)nc5c4)n3)cc2)CC1` [Example 1, 5-bromo-N^2-[4-(4-ethylpiperazin-1-yl)phenyl]-N^4-[2-(trifluoromethyl)-1H-benzimidazol-5-yl]pyrimidine-2,4-diamine], for which the pIC50 is below 6.30. `COc1cc(N2CCC(N(C)C)CC2)ccc1Nc1ncc(Cl)c(Nc2ccc3c(cnn3C)c2)n1` [Example 18, 5-chloro-N^2-{4-[4-(dimethylamino)piperidin-1-yl]-2-methoxyphenyl}-N^4-(1-methyl-1H-indazol-5-yl)pyrimidine-2,4-diamine]: the pIC50 was 6.30 to 7.00.

Take `CCS(=O)(=O)c1cc2c(cnn2C)cc1Nc1nc(Nc2ccc(N3CCN(C(C)C)CC3)cc2OC)ncc1Br` [Example 42, 5-bromo-N^4-[6-(ethylsulfonyl)-1-methyl-1H-indazol-5-yl]-N^2-[4-(4-isopropylpiperazin-1-yl)-2-methoxyphenyl]pyrimidine-2,4-diamine]: the negative logarithm of the IC50 (pIC50) is above 8.00. With `CCS(=O)(=O)c1cc2c(cnn2C)cc1Nc1nc(Nc2ccc(N3CCS(=O)(=O)CC3)cc2)ncc1Br` [Example 45, 5-bromo-N^2-[4-(1,1-dioxidothiomorpholin-4-yl)phenyl]-N^4-[6-(ethylsulfonyl)-1-methyl-1H-indazol-5-yl]pyrimidine-2,4-diamine], the negative-log IC50 (pIC50) was 7.00 to 7.29. With `COc1cc(N2CCC(N3CCN(C)CC3)CC2)ccc1Nc1ncc(Br)c(Nc2ccc3[nH]ncc3c2)n1` [Example 13, 5-bromo-N^4-1H-indazol-5-yl-N^2-{2-methoxy-4-[4-(4-methylpiperazin-1-yl)piperidin-1-yl]phenyl}pyrimidine-2,4-diamine] the figure was 7.30 to 8.00; with `CCN1CCN(c2ccc(Nc3ncc(Br)c(Nc4ccc5scnc5c4)n3)cc2)CC1` [Example 14, N^4-1,3-benzothiazol-5-yl-5-bromo-N^2-[4-(4-ethylpiperazin-1-yl)phenyl]pyrimidine-2,4-diamine], 6.30 to 7.00. For the molecule `CCS(=O)(=O)c1cc2c(cnn2C)cc1Nc1nc(Nc2ccc(N3CCC(N(C)C)CC3)cc2OC)ncc1Br` [Example 33, 5-bromo-N^2-{4-[4-(dimethylamino)piperidin-1-yl]-2-methoxyphenyl}-N^4-[6-(ethylsulfonyl)-1-methyl-1H-indazol-5-yl]pyrimidine-2,4-diamine], the pIC50 is above 8.00.
